Usually EC50 stands for the midpoint of the concentration-response curve.

Molecules are shown by their SMILES. ≈ marks a conversion by molar mass, not a printed value. Read-outs that look alike come from different tables or passages of the source.

In data set [1] the test system is HBV replication in HepG2.2.15 cells. Put plainly: Anti-HBV activity in vitro in HepG2.2.15 cells (extracellular HBV DNA by qPCR). In kind it is cell-based. The note with it: Hepatitis B virus. The source says:
HepG2.2.15 and HepDE19 are stably-transfected cell lines containing the HBV genome. Both cell lines are derived from the hepatoblastoma cell line Hep G2 (American Type Culture Collection, ATCC® HB-8065™) by the published procedures described in references: M A Selles et al. Proc. Natl. Acad. Sci. USA 1987, 84, 1005-1009 and H Guo et al. Journal of Virology 2007, 81, 12472-12484, respectively. Both cell lines were maintained in Dulbecco's modified Eagle's medium (DMEM)-F12 medium supplemented with 10% fetal bovine serum, 100 U/mL penicillin, 100 μg/mL streptomycin, and 0.5 mg/mL of G418.
While HepG2.2.15 cells constitutively support HBV replication and production of virus particles, HepDE19 cells are inducible by tetracycline. Addition of 1 μg/mL tetracycline in culture medium suppresses HBV replication in HepDE19 cells, whereas switching to tetracycline-free medium resumes this process.
HepG2.2.15 cells were seeded into 96-well plates (3×10^4 cells in 100 μL media per well) and incubated overnight at 37° C. The test compounds were serially half-log diluted in DMSO, then diluted 100 times in culture media. 100 μL diluted compounds were added into the plates to reach 0.5% final concentration of DMSO in every well. Five days after compound treatment, culture supernatant was collected for further analysis.
For quantitative PCR detection of extracellular HBV DNA, 100 μL culture supernatant was collected and processed in MagNA Pure 96 Nucleic Acid Purification System (Roche Applied Science) for viral DNA extraction. The extracted samples were subjected to HBV DNA quantification by qPCR. The effective compound concentration at which HBV replication is inhibited by 50% (EC50) was determined.
The Examples were tested in the above assays as described herein and found to have EC50<1 μM in HepG2.2.15 assay.

Data set [2] is described as follows: Lyophilisation solubility assay (Lysa). The format is physicochemical. The note with it: thermodynamic from solid. How it is done: The aqueous solubility is an important physico-chemical property that plays a significant role in various physical and biological processes. It is desirable to have good solubility which enables good permeability and gastric and intestinal absorption, linear dose proportionality, less PK variability, and easy formulation for PD/PK studies. […] Lyophilisation solubility assay (Lysa) is a well adopted high throughput assay to measure compound solubility in industry.
Samples are prepared in duplicate from 10 mM DMSO stock solutions. After evaporation of DMSO with a centrifugal vacuum evaporator, the residue is solved in 0.05 M phosphate buffer (pH 6.5), stirred for one hour and then shook for two hours. After one night, the solution is filtered using a microtiter filter plate and then the filtrate and its 1/10 dilution are then analyzed by direct UV measurement or by HPLC-UV. In addition a four-point calibration curve is prepared from the 10 mM stock solutions and used for the solubility determination of the compounds. The results are in μg/ml. In case the percentage of sample measured in solution after evaporation divided by the calculated maximum of sample amount is bigger than 80% the solubility is reported as bigger than this value.

Data set [3] is described as follows: Human microsomal clearance assay. In kind it is in vitro ADME. The note with it: human, 1 μM, pH 7.4. As for the experimental part:
Microsomes were preincubated with test compound for 10 minutes at 37° C. in 100 mM phosphate buffer with pH 7.4. The reactions were initiated by adding NADPH regenerating system to give a final incubation volume of 400 μL. The incubations finally contained 1 μM test compound, 0.5 mg/mL liver microsomal protein, 3.0 mM glucose 6-phosphate, 1.0 mM NADP, 3.0 mM MgCl2 and 0.05 mg/mL glucose 6-phosphate dehydrogenase in 100 mM phosphate buffer with pH 7.4. After incubation times of 0, 3, 6, 9, 15 and 30 minutes, 50 μL, incubation was transferred to the quench solution containing the internal standard which was 2 μM tolbutamide. After precipitation and centrifugation, test compound concentrations in the samples were determined by LC-MS/MS. Controls of no NADPH regenerating system at zero and 30 minutes were also prepared and analyzed.

Where [4] appears, read: HepG2.2.15, Anti-HBV activity in HepG2.2.15 cells, read-out: EC50.

Regarding `CCOC(=O)C1=C(CN2C3COCC2C(OCC(=O)O)C3)NC(c2nccs2)=N[C@H]1c1ccc(F)cc1Br` (mixture of isomers) [Example 50, 2-[[8-[[(4R)-4-(2-bromo-4-fluoro-phenyl)-5-ethoxycarbonyl-2-thiazol-2-yl-1,4-dihydropyrimidin-6-yl]methyl]-3-oxa-8-azabicyclo[3.2.1]octan-6-yl]oxy]acetic acid], in data set [1] (setting [4]), the 50% effective concentration (EC50) stood at 24.1 nM. The solubility thermodynamic in data set [2] (pH 6.5, aqueous buffer) is more than 724 µg/mL. Besides, the CLh in data set [3] is 1.4 mL/min/kg.

As for `COC(=O)C1=C(CN2C3COCC2CC(C(=O)O)C3)NC(c2nccs2)=N[C@H]1c1ccc(F)cc1Cl` (stereo partly drawn) [Example 1, 9-[[(4R)-4-(2-chloro-4-fluoro-phenyl)-5-methoxycarbonyl-2-thiazol-2-yl-1,4-dihydropyrimidin-6-yl]methyl]-3-oxa-9-azabicyclo[3.3.1]nonane-7-carboxylic acid], the EC50 in data set [1] (setting [4]) came out at 59 nM. This compound also came in with a solubility thermodynamic in data set [2] (pH 6.5, aqueous buffer) of 540 µg/mL (≈ 1010 µM). For the same compound, the CLh in data set [3] was determined as 3.0 mL/min/kg.

Take `COC(=O)C1=C(CN2C3COCC2CN(C(C)C)C3)NC(c2nccs2)=N[C@H]1c1ccc(F)cc1Cl` [Example 13, (R)-4-(2-Chloro-4-fluoro-phenyl)-6-(7-isopropyl-3-oxa-7,9-diaza-bicyclo[3.3.1]non-9-ylmethyl)-2-thiazol-2-yl-1,4-dihydro-pyrimidine-5-carboxylic acid methyl ester]: in data set [1] (setting [4]), the EC50 came to 270 nM. For the same compound, in data set [2] (pH 6.5, aqueous buffer), the solubility thermodynamic was found to be 313 µg/mL (≈ 586 µM).

As to `COC(=O)C1=C(CN2C3COCC2CN(C(C)=O)C3)NC(c2nccs2)=N[C@H]1c1ccc(F)cc1Cl` [Example 15, (R)-6-(7-Acetyl-3-oxa-7,9-diaza-bicyclo[3.3.1]non-9-ylmethyl)-4-(2-chloro-4-fluoro-phenyl)-2-thiazol-2-yl-1,4-dihydro-pyrimidine-5-carboxylic acid methyl ester], in data set [1] (setting [4]), the 50% effective concentration (EC50) was 43 nM. The compound further showed a solubility thermodynamic in data set [2] (pH 6.5, aqueous buffer) of 233 µg/mL (≈ 436 µM).

With `COC(=O)C1=C(CN2C3CNC(=O)CC2COC3)NC(c2nccs2)=N[C@H]1c1ccc(F)cc1Cl` (stereo partly drawn) [Example 34, (R)-4-(2-Chloro-4-fluoro-phenyl)-6-(4-oxo-8-oxa-3,10-diaza-bicyclo[4.3.1]dec-10-ylmethyl)-2-thiazol-2-yl-1,4-dihydro-pyrimidine-5-carboxylic acid methyl ester], in data set [1] (setting [4]), the half-maximal effective concentration (EC50) was 42 nM. This compound yielded a solubility thermodynamic in data set [2] (pH 6.5, aqueous buffer) of 263 µg/mL (≈ 506 µM).

On to `COC(=O)C1=C(CN2CC3CC2CN3C(C)=O)NC(c2nccs2)=N[C@H]1c1ccc(F)cc1Cl` (stereo partly drawn) [Example 41, (R)-6-(5-Acetyl-2,5-diaza-bicyclo[2.2.1]hept-2-ylmethyl)-4-(2-chloro-4-fluoro-phenyl)-2-thiazol-2-yl-1,4-dihydro-pyrimidine-5-carboxylic acid methyl ester], for which it took 133 nM to reach a half-maximal effect in data set [1] (HepG2.2.15) (EC50). Moreover, in data set [2] (aqueous buffer, 0.05 M phosphate buffer (pH 6.5), reported as bigger than the value if more than 80% of the sample is in solution, read-out: Lysa), the solubility thermodynamic is more than 552 µg/mL.

With `COC(=O)C1=C(CN2C3CSCC2CC(CC(=O)O)C3)NC(c2nccs2)=N[C@H]1c1ccc(F)cc1Cl` (some centres unmarked) [Example 42, 6-(7-Carboxymethyl-3-thia-9-aza-bicyclo[3.3.1]non-9-ylmethyl)-4-(2-chloro-4-fluoro-phenyl)-2-thiazol-2-yl-1,4-dihydro-pyrimidine-5-carboxylic acid methyl ester], the EC50 in data set [1] (setting [4]) is 54.5 nM. The compound also returned a solubility thermodynamic in data set [2] (pH 6.5, aqueous buffer) of 188 µg/mL (≈ 333 µM).

The compound `COC(=O)C1=C(CN2[C@@H]3CC[C@H]2C[C@@H](O)C3)NC(c2nccs2)=N[C@H]1c1ccc(F)cc1Cl` [Example 44, (R)-4-(2-Chloro-4-fluoro-phenyl)-6-((1R,3R,5S)-3-hydroxy-8-aza-bicyclo[3.2.1]oct-8-ylmethyl)-2-thiazol-2-yl-1,4-dihydro-pyrimidine-5-carboxylic acid methyl ester] gave a solubility thermodynamic in data set [2] (pH 6.5, aqueous buffer) of more than 623 µg/mL. Moreover, in data set [3], the CLh was 7.1 mL/min/kg.

Take `CCOC(=O)C1=C(CN2[C@H]3C[C@@H](CC(=O)O)C[C@@H]2C(F)(F)C3)NC(c2nccs2)=N[C@H]1c1cccc(F)c1Cl` [Example 99, 2-[(1S,3R,5R)-8-[[(4R)-4-(2-chloro-3-fluoro-phenyl)-5-ethoxycarbonyl-2-thiazol-2-yl-1,4-dihydropyrimidin-6-yl]methyl]-6,6-difluoro-8-azabicyclo[3.2.1]octan-3-yl]acetic acid]: the concentration giving a half-maximal response (EC50) in data set [1] (setting [4]) was 12.6 nM. This compound had a CLh in data set [3] of 3 mL/min/kg.

For `COC(=O)C1=C(CN2[C@@H]3COC[C@H]2[C@H](F)[C@@H](CC(=O)O)C3)NC(c2nccs2)=N[C@H]1c1cccc(F)c1Cl` [Example 100, 2-[(1S,5S,6R,7R)-9-[[(4R)-4-(2-chloro-3-fluoro-phenyl)-5-methoxycarbonyl-2-thiazol-2-yl-1,4-dihydropyrimidin-6-yl]methyl]-6-fluoro-3-oxa-9-azabicyclo[3.3.1]nonan-7-yl]acetic acid], the EC50 in data set [1] (setting [4]) is 283 nM. The CLh in data set [3] is 0 mL/min/kg.

For `COC(=O)C1=C(CN2[C@H]3C[C@H](CC(=O)O)C[C@@H]2C(F)(F)C3)NC(c2nccs2)=N[C@H]1c1ccc(F)cc1Cl` [Example 110, 2-[(1S,3S,5R)-8-[[(4R)-4-(2-chloro-4-fluoro-phenyl)-5-methoxycarbonyl-2-thiazol-2-yl-1,4-dihydropyrimidin-6-yl]methyl]-6,6-difluoro-8-azabicyclo[3.2.1]octan-3-yl]acetic acid], in data set [1] (setting [4]), the concentration for a half-maximal effect (EC50) was determined as 44.3 nM. The compound further came in with a CLh in data set [3] of 4.1 mL/min/kg.

For `COC(=O)C1=C(CN2C3CCC2CN(C(C)=O)C3)NC(c2nccs2)=N[C@H]1c1ccc(F)cc1Cl` [Example 122, Methyl (4R)-6-[(3-acetyl-3,8-diazabicyclo[3.2.1]octan-8-yl)methyl]-4-(2-chloro-4-fluoro-phenyl)-2-thiazol-2-yl-1,4-dihydropyrimidine-5-carboxylate], in data set [1] (setting [4]), the EC50 is 77.4 nM. This compound returned a CLh in data set [3] of 7.0 mL/min/kg.

Take `CCOC(=O)C1=C(CN2C3COCC2C(F)(F)[C@@H](CC(=O)O)C3)NC(c2nccs2)=N[C@H]1c1ccc(F)c(F)c1C` (stereo partly drawn) [Example 127, 2-[(7R)-9-[[(4S)-4-(3,4-difluoro-2-methyl-phenyl)-5-ethoxycarbonyl-2-thiazol-2-yl-1,4-dihydropyrimidin-6-yl]methyl]-6,6-difluoro-3-oxa-9-azabicyclo[3.3.1]nonan-7-yl]acetic acid]: the concentration giving a half-maximal response (EC50) in data set [1] (setting [4]) came out at 16.1 nM. In data set [3], this compound yielded a CLh of 2.9 mL/min/kg.

Regarding `CCOC(=O)C1=C(CN2C3COCC2C(F)(F)[C@@H](CC(=O)O)C3)NC(c2nccs2)=N[C@H]1c1cccc(F)c1Cl` (stereo partly drawn) [Example 129, 2-[(7R)-9-[[(4R)-4-(2-chloro-3-fluoro-phenyl)-5-ethoxycarbonyl-2-thiazol-2-yl-1,4-dihydropyrimidin-6-yl]methyl]-6,6-difluoro-3-oxa-9-azabicyclo[3.3.1]nonan-7-yl]acetic acid], in data set [1] (setting [4]), the EC50 worked out at 21 nM. Moreover, the CLh in data set [3] is 2.0 mL/min/kg.

For the compound `CCOC(=O)C1=C(CN2C3CC(C(=O)O)CC2C(F)(F)C3)NC(c2nccs2)=N[C@H]1c1cccc(F)c1Cl` (stereo partly drawn) [Example 150, 8-[[(4R)-4-(2-chloro-3-fluoro-phenyl)-5-ethoxycarbonyl-2-thiazol-2-yl-1,4-dihydropyrimidin-6-yl]methyl]-6,6-difluoro-8-azabicyclo[3.2.1]octane-3-carboxylic acid], in data set [1] (setting [4]), the EC50 came to 7.7 nM. Moreover, the CLh in data set [3] was 3.1 mL/min/kg.

Values taken from patent publication US9266904B2, “6-bridged heteroaryldihydropyrimidines for the treatment and prophylaxis of hepatitis B virus infection” (priority 2013, dated 2016).
